According to patent US20260355189A1, “SMALL MOLECULE INHIBITORS OF NEUTROPHIL EXOCYTOSIS AND INFLAMMATION” (THE SCRIPPS RESEARCH INSTITUTE, priority 2022, published 2026):

Tests used:
LPS-challenged mice = test: LPS-induced systemic inflammation (endotoxemia/sepsis), plasma cytokines; assay type: in vivo, mouse; settings: for IL-10 levels: FIG. 10B
Description: FIG. 10A-B. Treatment with compound NEIa-C6 inhibits pro-inflammatory cytokine production in a model of sepsis. We tested the ability of C6 to protect mice from LPS-induced systemic inflammation. In these experiments, mice (n=4 independent mice per group) receive NEIa-C6 (30 mg/Kg) or vehicle by a single i.p. injection and two hours later, the animals are challenged with a single i.p. injection of lipopolysaccharide (LPS, 8 mg/Kg) or PBS (vehicle for LPS). Four hours after LPS/PBS insult, blood is collected and cytokines are analyzed in plasma using multiplex technology.
To test whether Nexinhibs, and in particular NEIa-C6, have additional protective properties in inflammation models relevant to human disease, independent of inflammasome activation, we tested the ability of C6 to protect mice from LPS-induced systemic inflammation. In these experiments, mice received NEIa-C6 (30 mg/Kg) or vehicle by a single i.p. injection and two hours later, the animals are challenged with a single i.p. injection of lipopolysaccharide (LPS, 8 mg/Kg), an important outer membrane component of gram-negative bacteria. In this model, endotoxemia insult induces the production of pro-inflammatory cytokines. To test the possible anti-inflammatory effect of NEIa-C6, we comparatively analyzed cytokine levels in plasma of LPS-insulted and control mice using multiplex technology.

[1] = system: human neutrophils (secretory vesicle marker CD11b); test: Flow cytometry of secretory vesicle mobilization (CD11b) in human neutrophils; assay type: cell-based; settings: 10 μM, 1 hour; GM-CSF + fMLP; relative to DMSO; N=15 donors; FIG. 7
Source text: (§1) Human neutrophils were isolated from normal donor's blood by Ficoll density centrifugation, as described previously (23). Murine bone marrow-derived neutrophils were isolated using a Percoll gradient fractionation system as described (24). A three-layer Percoll gradient was used (52%, 64%, and 72%), and neutrophils were isolated from the 64-72% interface, washed, and used in the assays.
(§2) Method: The up-regulation of granule membrane-associated neutrophil markers at the plasma membrane was analyzed by flow cytometry. In these studies, flow cytometry analysis was performed by resuspension of 1×10^6 human neutrophils in phenol red-free RPMI 1640 medium, treated with a 10 μM solution of Inhibitors C1, C2, C4, C5, and C6 and Nexinhib 20 (C20) or DMSO control for 1 hour, and stimulated with physiological agonists GM-CSF (10 ng/ml) for 30 min followed by the addition of fMLP (1 μM) to induce degranulation or left untreated at 37 °C (non-stimulated, NS). The reactions were stopped by transferring the samples to ice and immediately spinning down the cells to initiate blocking and staining. To analyze the plasma membrane expression of plasma membrane markers, the cells were blocked in ice-cold PBS containing 1% BSA and stained with phycoerythrin (PE)-, FITC-, or Alexa647-conjugated anti-human CD63, CD66b, MMP9, and CD11b antibodies that detect extracellular epitopes of these markers. The cells were then washed and fixed in 1% paraformaldehyde in PBS. Samples were analyzed using a NovoCyte flow cytometer, and the data were processed using FlowJo software.

[2] = system: Nlrp3^A350V cre ERT2 mice; test: Nlrp3 A350V cre ERT2 mouse model of cryopyrin-associated periodic syndrome (CAPS); assay type: in vivo; settings: 30 mg/Kg i.p.; for Number of leukocytes and leukocyte subtypes: 7 or 13 days, FIG. 9B; for Activation of circulating neutrophils (CD63 upregulation): FIG. 9D; for Neutrophilic infiltration into the kidney (total MMP9 and MPO levels): tissues day 13, FIG. 9F
Description: […] cre ERT2 and control mice were injected i.p. with 50 mg/kg tamoxifen followed by C6 (30 mg/Kg) or vehicle as described. B) Total leukocytes numbers and subtypes were not affected. C) Animals suffer weight loss with disease progression. D) The activation of circulating neutrophils is attenuated by C6. E, The percentage of immature (pro-inflammatory, Ly6G-) neutrophils in circulation (blood) in Nlrp3^A350V is attenuated by treatment with C6 (4.29%) as compared to vehicle (11.0%). […] F, The protection was specific for kidneys.
In this model, disease is caused by the Nlrp3^A350V mutations. The Nlrp3^A350V inducible mouse model (MWS CreT) is homologous to humans suffering from CAPS with the Muckle-Wells A352V mutation in the NLRP3 gene. The tamoxifen inducible Nrp3^A350V cre ERT2 and control animals were injected (i.p.) with 50 mg/kg tamoxifen free base to induce disease (J Immunol 189, 2707-2711, doi:10.4049/jimmunol.1101737 (2012)). The mice (6-12 weeks old) had access to food and water ad libitum. All animal studies were performed in compliance with the U.S. Department of Health and Human Services Guide for the Care and Use of Laboratory Animals and according to NIH and institutional guidelines. All animal protocols and procedures were approved by the University of California San Diego Institutional Animal Care and Use Committees (IACUC). Mice were treated with the neutrophil specific inhibitor NEIa-C6 or vehicle (5% DMSO in PBS). In this model, NLRP3^A350V disease develops progressively in 15 days after first induction with tamoxifen. Between day 0 and day 5 mice were injected (i.p) every other day with tamoxifen followed by NEIa-C6 (30 mg/Kg) or vehicle. Next, administration of NEIa-C6 or vehicle continued until day 13, in the absence of tamoxifen. Blood samples were obtained at day 7 and blood and tissues harvested at day 13. […] The effect was specific for kidneys as lung and liver infiltration was unaffected (FIG. 9G).

[3] = system: human neutrophils (Gelatinase granule cargo MMP9); test: Flow cytometry of gelatinase granule exocytosis (MMP9) in human neutrophils; assay type: cell-based; settings: 1 hour, GM-CSF + fMLP
Source text: as §1, §2

[4] = 30 mg/Kg i.p., LPS 8 mg/Kg, plasma, FIG. 10A

CCN(CC)CCNC(=O)/C(=C/c1cccc([N+](=O)[O-])c1)n1cncn1 [154 (C6)]
Production of pro-inflammatory cytokines (LPS-challenged mice; 30 mg/Kg i.p. 2 h before LPS 8 mg/Kg, plasma 4 h after LPS, FIG. 10A): inhibit the production of the indicated pro-inflammatory cytokines
GM-CSF production (LPS-challenged mice; [4]): significantly decreases
IL-1β production (LPS-challenged mice; [4]): significantly decreases
IL-17 levels (LPS-challenged mice; [4]): decreased
MIP-2 levels (LPS-challenged mice; [4]): decreased
TL-3 levels (LPS-challenged mice; [4]): decreases
IL-10 levels (LPS-challenged mice; 30 mg/Kg i.p., LPS 8 mg/Kg, plasma, listed as C6): increases the production of IL-10
IL-10 levels (LPS-challenged mice; 30 mg/Kg i.p., LPS 8 mg/Kg, plasma, listed as NEIa-C6): increased the levels of IL-10
Release of CD11b+ vesicles / CD11b upregulation [1]: unaffected
Number of leukocytes and leukocyte subtypes ([2]; listed as C6): not affected
Number of leukocytes and leukocyte subtypes ([2]; listed as NEIa-C6): did not affect the number of any leukocyte subtype
Neutrophil mediated inflammation in vivo ([2]; FIG. 9): inhibits neutrophil mediated inflammation in vivo
Activation of circulating neutrophils (CD63 upregulation) ([2]; listed as C6): attenuated
Activation of circulating neutrophils (CD63 upregulation) ([2]; listed as NEIa-C6): decreased neutrophil activation in vivo
Lung and liver neutrophilic infiltration ([2]; FIG. 9G): unaffected
Neutrophilic infiltration into the kidney (total MMP9 and MPO levels) ([2]; listed as C6): significantly decreased
Neutrophilic infiltration into the kidney (total MMP9 and MPO levels) ([2]; listed as NEIa-C6): significantly protected kidneys from neutrophilic infiltration
Percentage of immature (pro-inflammatory, Ly6G-) neutrophils in blood ([2]; vehicle 11.0%, FIG. 9E): 4.29%
Weight loss ([2]; vs vehicle, FIG. 9C): partially protected from weight loss
Number of pro-inflammatory immature neutrophils in blood ([2]; vs vehicle, FIG. 9E): decreased the number of pro-inflammatory immature neutrophils in blood
Inhibition in MMP9 experiment (words; printed as CD66b up-regulation) ([3]; 10 μM, relative to DMSO, FIG. 6): marked inhibition of CD66b up-regulation
inhibition at 10 µM ([3]; Homo sapiens, Neutrophil, N=12 donors, FIG. 6, read-out: % Inhibition of MMP9 up-regulation): 54.4%
